Data: patent US7709454B2, “Methods and compositions for inhibiting tumorigenesis” (New York University, priority 1997, dated 2010)
Read-outs that look alike come from different tables or passages of the source.

Key:
Rat-1 cells = details: cited from earlier work
[1] = system: Human melanoma cell lines; details: cited from earlier work
[2] = system: SCID mice/melanoma (518A2, 607B); details: cited from earlier work
[3] = system: human melanoma primary cultures and cell lines; test: BrdU incorporation in melanoma primary cultures and cell lines; assay type: cell-based; details: 48 h; all four melanoma cell lines tested and Me-3
Procedure: Human foreskin melanocytes (Promocell) were grown in serum-free M2 medium (Promocell). WM-115, SK-MEL-2, SK-MEL-5, MeWo and COS7 cell lines (ATCC) were grown as specified. Tumors were chopped, incubated in E-MEM (Sigma) containing collagenase A (300 U/ml, Worthington) and hyaluronidase (100 U/ml, Sigma), mechanically dissociated and plated in E-MEM with 10% FBS, 1 mM sodium pyruvate (GIBCO) and 1 ng/ml EGF (GIBCO). […] All melanoma samples and BCC were obtained following approved protocols.
(§1) Commercial N-SHH (R&D Systems) was used at 100 nM. 5E1 anti-SHH blocking antibody (Hybridoma Bank, University of Iowa) was used at 10 μg/ml. Forskolin (FK) and 1,9-dideoxyforskolin (ddFK; Sigma) were used at 50 μM. […] MEK-1 (U0126; Promega), EGFR (AG1478; Biosource) and AKT (SH6; Alexis corporation) inhibitors were used at 1, 10, and 40 μM, respectively, dissolved in DMSO. Drug treatments were for 48 h in 2.5% serum. BrdU (Sigma) was pulsed at 4 μg/ml for 2 h before fixation followed by immunodetection with anti-BrdU antibodies (BD Biosciences). The number of viable cells was assessed by Trypan blue exclusion (Promega).

[4] = system: GLI1, PTCH1, BMI1, FOXM1, MITFM expression; test: qPCR gene expression in melanoma cultures; assay type: cell-based, human; details: 4 h after inhibitor; all cultures
Procedure: Real-time quantitative PCR amplifications with different primers (Suppl. Materials) were carried out at 60° C. on an Opticon machine (MJ Research) using iQ™ SYBR Green supermix (Biorad) and values calculated using the standard curve method.
as §1

[5] = system: GLI1-transfected WM-115, SK-MEL-2 and SK-MEL-5; test: GLI1-transfection enhanced BrdU incorporation, treatment with inhibitors; assay type: cell-based, human; details: 48 h treatment
Procedure: as §1

[6] = system: frog GLI1, frog Gli2, human GLI3 proteins; test: localization of Myc-tagged GLI proteins in transfected COS7 cells; assay type: cell-based
Procedure: (§2) Cells were transfected (3 μg/p35 plate) with myc-tagged full-length CMV expression vectors for human GLI1 (Lee, J., Platt, K. A., Censullo, P. & Ruiz i Altaba, A. Gli1 is a target of Sonic hedgehog that induces ventral neural tube development. Development 124, 2537-2552 (1997)), HRAS-V12 (kindly provided by Dr. A. Pellicer, NYU) and LacZ with FUGENE (Roche). For selection, SK-MEL-2 and MeWo cells were transfected (4 μg/p60 plate) with PGK-neo and CMV-eGFP alone or in a 1/1/8 ratio with HRAS-12G, GLI3C′ΔClaI (Ruiz i Altaba 1999) or (frog) fGli2C′Δ (Ruiz i Altaba 1999), or in a 1/1/4/4 ratio with HRAS-12G/GLI3C′ΔClaI or HRAS-12G/fGli2C′Δ. After Geneticin (400 μg/ml, Gibco) selection for 20 days, colonies were stained with 0.5% crystal violet. Colony size was measured in duplicate dishes in three independent experiments. For subcellular localization, pCS2-Myc frog Gli2, […], human GLI3 and human GLI3C′ΔCla1 (Ruiz i Altaba, 1999) were transfected into COS-7 (ATCC) cells with our without HRAS (V12).

Frog Gli2 = test: localization of myc-tagged GLI proteins in transfected COS-7 cells; assay type: cell-based; details: Gli2+RAS*+inhibitor, 1 hr
Procedure: as §2

[7] = system: Human GLI3Rep (GLI3C′ΔCla1); test: as above; assay type: cell-based; details: GLI3Rep+RAS*+inhibitor, 1 hr
Procedure: as §2

Me-3, SK-Mel2 and WM-115 = test: BrdU incorporation after MEK1 or AKT inhibitors (Example 2); assay type: cell-based, human; details: 48 h
Procedure: WM-115, SK-MEL-2 and COS7 cell lines (ATCC) were grown according to the specifications of the provider. The primary Me-3 melanoma (Stecca, B. et al. Melanocyte proliferation and melanoma growth, recurrence and metastasis require sustained SONIC HEDGEHOG-GLI signaling. Submitted. (2006)) was grown in E-MEM with 10% FBS (Hyclone), 1 mM sodium pyruvate (GIBCO) and 1 ng/ml EGF (GIBCO). Proliferating human melanocytes from foreskin (Promocell) were grown in M2 media (Promocell). Melanomas from ±6 month-old Tyr→NRAS^Q61K; Ink4a^−/− mice on a light coat color Dct^−/− background^13 were collected from the skin and lymph nodes. Tumors were dissociated and grown in E-MEM with 10% FBS, 1 mM sodium pyruvate (GIBCO) and 1 ng/ml EGF (GIBCO). Mouse embryonic fibroblasts (MEFs) were prepared from E14.5 Swiss Webster mouse embryos and grown in DMEM with 10% FBS.
Forskolin (FK) and 1,9-dideoxyforskolin (ddFK; Sigma) were used at 50 μM. MEK-1 (U0126; Promega), and AKT (SH6; Alexis corporation) inhibitors were used at 1 and 40 μM, respectively, dissolved in DMSO. U0126 and SH6 were used for 1 h, 48 h post-transfection. Leptomycin B (LMB; Sigma) was used at 5 nM for 6 h, 48 h post-transfection. BrdU (Sigma) was pulsed at 4 μg/ml for 2 h before fixation followed by immunodetection with anti-BrdU antibodies (BD Biosciences). The number of viable cells was assessed by Trypan blue exclusion (Promega). […]

SK-Mel2 cells = test: Propidium iodide FACS analyses; assay type: cell-based, human; details: 24 h, compared to DMSO-treated cells
GLI1 and PTCH1 mRNA = test: qPCR of GLI1 and PTCH1 mRNA after MEK-1 or AKT inhibitors; assay type: cell-based, human; details: 4 h after treatment
Procedure: Real-time quantitative PCR amplifications with different primers were carried out at 60° C. on an Opticon machine (MJ Research) using iQTM SYBR Green supermix (Biorad) and values calculated using the standard curve method. Human primer sequences were 5'→3': […] NO: 5) and […] NO: 6); […] NO: 11) and […] NO: 41) and NRAS-R: […] NO: 44); […] NO: 33) and […] NO: 34). For mice: […] NO: 45) and […] NO: 46); Sufu-[…] NO: 47) and Sufu-[…] NO: 48); […] NO: 49) and […] NO: 50); Tyrosinase-[…] NO: 51) and Tyrosinase-[…] NO: 53) and […] NO: 54); […] NO: 55) and […] NO: 56). […] Promega), and AKT (SH6; […] […] Control siRNA: […] […] Proc. Natl. Acad. Sci. USA.

GLI1, GLI3, GLI3R = test: localization of transfected GLI proteins in SK-Mel2 cells; assay type: cell-based, human
Procedure: (§3) Forskolin (FK) and 1,9-dideoxyforskolin (ddFK; Sigma) were used at 50 μM. MEK-1 (U0126; Promega), and AKT (SH6; Alexis corporation) inhibitors were used at 1 and 40 μM, respectively, dissolved in DMSO. U0126 and SH6 were used for 1 h, 48 h post-transfection. Leptomycin B (LMB; Sigma) was used at 5 nM for 6 h, 48 h post-transfection. BrdU (Sigma) was pulsed at 4 μg/ml for 2 h before fixation followed by immunodetection with anti-BrdU antibodies (BD Biosciences). The number of viable cells was assessed by Trypan blue exclusion (Promega). […] (SEQ ID NO: 57) (target-validated from Ambion). […] SEQ ID NO: 58) (Sanchez, P. et al. Inhibition of prostate cancer proliferation by interference with SONIC HEDGEHOG-GLI1 signaling. Proc. Natl. Acad. Sci. USA. 101, 12561-12566 (2004)). siRNA transfections (0.2 μM) were performed with Oligofectamine (Invitrogen) for 48 h.
Cells were transfected (3 μg/p35 plate) with myc-tagged full-length CMV expression vectors with FUGENE (Roche). Transfections were at equimolar amounts unless otherwise specified with combinations of pCS2-Myc-tagged human GLI1, GLI3, GLI3R (GLI3C′ΔClaI), frog Gli2R (Gli2C′) (Ruiz i Altaba, A. Gli proteins encode context-dependent positive and negative functions: implications for development and disease. Development 126, 3205-3216 (1999), pCMV-HA-tagged GLI1 (ref. 20), HRAS^V12G (from A. Pellicer), NRAS^Q61K (Ackermann, J. et al. Metastasizing melanoma formation caused by expression of activated N-RasQ61K on an INK4a-deficient background. Cancer Res. 65, 4005-4011 (2005)), activated (myristoylated) myc-tagged AKT1 (Upstate), activated MEK1 (p45MAPKK^S222D; from J. Pouyssegur), Myc-tagged SUFUH (Kogerman, P. et al. Mammalian suppressor-of-fused modulates nuclear-cytoplasmic shuttling of Gli-1. Nat Cell Biol. 1, 312-319 (1999)), and pCMV-eGFP or pCMV-lacZ.

GLI1 = test: localization of transfected GLI1 in COS7 cells (Example 2); assay type: cell-based, monkey; details: inhibitors for 1 h
Procedure: as §3
Cells were transfected (3 μg/p35 plate) with myc-tagged full-length CMV expression vectors with FUGENE (Roche). […]

all forms of MEK = details: cited from earlier work
[8] = system: Athymic mice/colon (DLD-1), H-Ras and K-Ras Fibroblast tumors; details: 10, 50 mg/kg/d; cited from earlier work
Glioma cell lines = details: cited from earlier work
[9] = system: Nude Harlan Sprague-Dawley Mice/lung (A-549, Calu-1) tumors; details: cited from earlier work
[10] = system: Various human tumor cell lines; details: cited from earlier work
[11] = system: Nude mice/colon (DLD-1, HCT 116); details: 2, 5, 10, 40 mg/kg/d; cited from earlier work
Pancreas (MIA PaCa-2) = details: cited from earlier work
NIH3T3 = details: 2, 5, 10, 40 mg/kg/d; cited from earlier work
Nude mice/colon (DLD-1) = details: 40 mg/kg/d; cited from earlier work
Nude mice/lung (A549) = details: 40 mg/kg/d; cited from earlier work
Nude mice/lung (HTB177) = details: 40 mg/kg/d; cited from earlier work
Pancreas (AsPC-1) = details: 40 mg/kg/d; cited from earlier work
Pancreas (HPAF-11) = details: 40 mg/kg/d; cited from earlier work
Pancreas (Hs 700T) = details: 40 mg/kg/d; cited from earlier work
Colon (HCT116) = details: 40 mg/kg/d; cited from earlier work
Prostate (DU-145) = details: 40 mg/kg/d; cited from earlier work
Urinary bladder (EJ) = details: 40 mg/kg/d; cited from earlier work
[12] = system: Wap-H-RAS transgenic Mice/mammary, salivary tumors; details: 2, 5, 10, 40 mg/kg/d; cited from earlier work
A/J mice lung adenomas = details: 50 mg/kg/d; cited from earlier work

CC(C)=CCC/C(C)=C/CC/C(C)=C/CSc1ccccc1C(=O)O [FTS, S-farnesylthiosalicyclic acid]
IC50 (Rat-1 cells): 30 to 40 µM | IC50 [1]: 100 µM | GROWTH INHIBITION ([2]; 5 mg/kg/d): 82-90% of controls | growth of human melanoma in SCID mice ([2]; mouse, in vivo): significant reduction in the growth

N#CC(=C(N)Sc1ccccc1N)C(C#N)=C(N)Sc1ccccc1N [U0126, 1,4-diamino-2,3-dicyano-1,4-bis[2-aminophenylthio]butadiene]
BrdU incorporation [3]: decreased BrdU incorporation | GLI1 and PTCH1 levels [4]: reduction of GLI1 and PTCH1 levels | effect on GLI1-enhanced proliferation [5]: reversed | localization of transfected GLI proteins without co-transfected RAS [6]: did not change the localization | effect on RAS-enhanced nuclear accumulation of GLI proteins ([6]; treatment for 1 h, 24 h after transfection): reversed | cells with cytoplasmic (c) localization (Frog Gli2): 30% | cells with cytoplasmic (c) localization [7]: 1% | BrdU incorporation (Me-3, SK-Mel2 and WM-115): decreased BrdU incorporation | decrease in the number of dividing cells (S/G2/M) (SK-Mel2 cells): 30% | GLI1 and PTCH1 mRNA levels (GLI1 and PTCH1 mRNA): rapid reduction of GLI1 and PTCH1 mRNA levels | localization of the constitutively nuclear GLI3R (GLI1, GLI3, GLI3R): no effect | localization of GLI1 (GLI1, GLI3, GLI3R; inhibitors for 1 h): increasing cytoplasmic localization of GLI1 | localization of GLI3 (GLI1, GLI3, GLI3R; inhibitors for 1 h): unaffected | effect on oncogenic RAS-induced nuclear accumulation of GLI1 (GLI1): reversed | higher affinity than PD 098059 (all forms of MEK): 44- to 357 fold

O=C(Cc1cc[n+]([O-])cc1)N1CCN(C2c3ccc(Cl)cc3CCc3cc(Br)cnc32)CC1 (stereo not shown) [SCH59228]
GROWTH INHIBITION [8]: >90%

COC(=O)[C@H](CCSC)NC(=O)c1ccc(NC[C@@H](N)CS)cc1-c1ccccc1 [FTI-277]
IC50 (Glioma cell lines): 2 to 15.5 µM | GROWTH INHIBITION ([9]; 50 mg/kg/d, lung (A-549, Calu-1) tumors, NIH3T3): 80%

O=C(Cc1ccncc1)N1CCC(=C2c3ccc(Cl)cc3CCc3cccnc32)CC1 [SCH44342]
IC50 [10]: 1 µM

NC(=O)N1CCC(CC(=O)N2CCC([C@H]3c4ncc(Br)cc4CCc4cc(Cl)cc(Br)c43)CC2)CC1 [SCH66336]
GROWTH INHIBITION [11]: 76% | GROWTH INHIBITION (Pancreas (MIA PaCa-2); 40 mg/kg/d, MIA PaCa-2): 78% | GROWTH INHIBITION (Pancreas (MIA PaCa-2); 2, 5, 10, 40 mg/kg/d): 75% | GROWTH INHIBITION (NIH3T3): 100% | GROWTH INHIBITION (Nude mice/colon (DLD-1)): 76% | GROWTH INHIBITION (Nude mice/lung (A549)): 70% | GROWTH INHIBITION (Nude mice/lung (HTB177)): 83% | GROWTH INHIBITION (Pancreas (AsPC-1)): 72% | GROWTH INHIBITION (Pancreas (HPAF-11)): 67% | GROWTH INHIBITION (Pancreas (Hs 700T)): 67% | GROWTH INHIBITION (Colon (HCT116)): 84% | GROWTH INHIBITION (Prostate (DU-145)): 86% | GROWTH INHIBITION (Urinary bladder (EJ)): 100% | GROWTH INHIBITION [12]: 67%-86%

CSCC[C@H](NC(=O)c1ccc(NC[C@@H](N)CS)cc1-c1ccccc1)C(=O)O [FTI-276]
GROWTH INHIBITION ([9]; 70 mg/kg/d): 70%-94% | GROWTH INHIBITION ([9]; 10, 50, 100 mg/kg/d): 75% | GROWTH INHIBITION (A/J mice lung adenomas): 58%
